According to patent publication US6737383B1, “Herbicidal oxadiazolidines” (priority 1999, dated 2004):

Experiments:
rape = assay: Test B pre/postemergence rape; format: in vivo, Brassica napus
Summary of the method: (§1)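 Response is a visual 0-to-10 score relative to untreated plants, where 0 means no effect and 10 means complete control, taken twelve to sixteen days after application. Treatments went onto soil at planting and onto foliage of 1- to 4-leaf plants, using a surfactant-containing non-phytotoxic solvent.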

soybean = assay: Test B pre/postemergence soybean; format: in vivo, Glycine max
Summary of the method: as §1

corn = assay: Test B pre/postemergence corn; format: in vivo, Zea mays
Summary of the method: as §1

bedstraw = assay: Test B pre/postemergence bedstraw; format: in vivo, Galium aparine
Summary of the method: as §1

blackgrass = assay: Test B pre/postemergence blackgrass; format: in vivo, Alopecurus myosuroides
Summary of the method: as §1

sugar beet = assay: Test B pre/postemergence sugar beet; format: in vivo, Beta vulgaris
Summary of the method: as §1

velvetleaf = assay: Test B pre/postemergence velvetleaf; format: in vivo, Abutilon theophrasti
Summary of the method: as §1

wild oat = assay: Test B pre/postemergence wild oat; format: in vivo, Avena fatua
Summary of the method: as §1

cocklebur = assay: Test B pre/postemergence cocklebur; format: in vivo, Xanthium strumarium
Summary of the method: as §1

morningglory = assay: Test B pre/postemergence morningglory; format: in vivo, Ipomoea hederacea
Summary of the method: as §1

surinam grass = assay: Test B pre/postemergence surinam grass; format: in vivo, Brachiaria decumbens
Summary of the method: as §1

purple nutsedge = assay: Test B pre/postemergence purple nutsedge; format: in vivo, Cyperus rotundus
Summary of the method: as §1

giant foxtail = assay: Test B pre/postemergence giant foxtail; format: in vivo, Setaria faberii
Summary of the method: as §1

wheat = assay: Test B pre/postemergence wheat; format: in vivo, Triticum aestivum
Summary of the method: as §1

pigweed = assay: Test B pre/postemergence pigweed; format: in vivo, Amaranthus retroflexus
Summary of the method: as §1

crabgrass = assay: Test B pre/postemergence crabgrass; format: in vivo, Digitaria sanguinalis
Summary of the method: as §1

[1] = Postemergence, Rate 62 g/ha, scale of 0 to 10, 0 is no effect, 10 is complete control
[2] = Postemergence, Rate 125 g/ha, scale 0 to 10, 0 is no effect, 10 is complete control
[3] = Postemergence, Rate 500 g/ha, scale 0 to 10, 0 is no effect, 10 is complete control
[4] = Preemergence, Rate 62 g/ha, scale 0 to 10 (0 no effect, 10 complete control)
[5] = Preemergence, Rate 125 g/ha, scale 0 to 10, 0 is no effect, 10 is complete control
[6] = Preemergence, Rate 500 g/ha, scale of 0 to 10 where 0 is no effect and 10 is complete control
[7] = Rate 250 g/ha, Postemergence, scale of 0 to 10 where 0 is no effect and 10 is complete control

With CC(C)N(C(=O)n1oc(=O)n(C(C)C(=O)c2ccccc2)c1=O)c1ccc(Cl)cc1 (stereo not drawn) [Compound 541] the “Rape plant response rating” value (rape; [1]) was 0, the “Rape plant response rating” value (rape; [2]) was 0 and the “Plant response rating, Rape” value (rape; [3]) was 3. The “Rape plant response rating” value (rape; [4]) was 0, the “Rape plant response rating” value (rape; [5]) was 0 and the “Rape plant response rating (0 to 10 scale)” value (rape; Preemergence, Rate 250 g/ha) was 0. The “Rape plant response rating” value (rape; [6]) was 0, the “Plant response rating, Rape” value (rape; [7]) was 3 and the “Soybean plant response rating” value (soybean; [1]) was 0. For the same compound, the “Soybean plant response rating” value (soybean; [2]) was 0, the “Plant response rating, Soybean” value (soybean; [3]) was 2 and the “Soybean plant response rating” value (soybean; [4]) was 0. The “Soybean plant response rating” value (soybean; [5]) was 0, the “Soybean plant response rating (0 to 10 scale)” value (soybean; Preemergence, Rate 250 g/ha) was 0 and the “Soybean plant response rating” value (soybean; [6]) was 0. The “Plant response rating, Soybean” value (soybean; [7]) was 1, the “Corn plant response rating” value (corn; [1]) was 0 and the “Corn plant response rating” value (corn; [2]) was 0. For the same compound, the “Plant response rating, Corn” value (corn; [3]) was 0, the “Corn plant response rating” value (corn; [4]) was 0 and the “Corn plant response rating” value (corn; [5]) was 0. For the same compound, the “Corn plant response rating (0 to 10 scale)” value (corn; Preemergence, Rate 250 g/ha) was 0, the “Corn plant response rating” value (corn; [6]) was 0 and the “Plant response rating, Corn” value (corn; [7]) was 0. The “Bedstraw plant response rating” value (bedstraw; [1]) was 0, the “Plant response rating, Bedstraw” value (bedstraw; [3]) was 5 and the “Bedstraw plant response rating” value (bedstraw; [4]) was 0. For the same compound, the “Bedstraw plant response rating” value (bedstraw; [5]) was 0, the “Bedstraw plant response rating (0 to 10 scale)” value (bedstraw; Preemergence, Rate 250 g/ha) was 0 and the “Bedstraw plant response rating” value (bedstraw; [6]) was 3. The “Plant response rating, Bedstraw” value (bedstraw; [7]) was 5, the “Blackgrass plant response rating” value (blackgrass; [1]) was 0 and the “Blackgrass plant response rating” value (blackgrass; [2]) was 0. For the same compound, the “Plant response rating, Blackgrass” value (blackgrass; [3]) was 0, the “Blackgrass plant response rating” value (blackgrass; [4]) was 0 and the “Blackgrass plant response rating” value (blackgrass; [5]) was 0. The “Blackgrass plant response rating (0 to 10 scale)” value (blackgrass; Preemergence, Rate 250 g/ha) was 0, the “Blackgrass plant response rating” value (blackgrass; [6]) was 2 and the “Plant response rating, Blackgrass” value (blackgrass; [7]) was 0. For the same compound, the “Sugarbeets plant response rating” value (sugar beet; [1]) was 0, the “Sugarbeets plant response rating” value (sugar beet; [2]) was 0 and the “Plant response rating, Sugarbeets” value (sugar beet; [3]) was 4. For the same compound, the “Sugarbeets plant response rating” value (sugar beet; [4]) was 0, the “Sugarbeets plant response rating” value (sugar beet; [5]) was 0 and the “Sugarbeets plant response rating (0 to 10 scale)” value (sugar beet; Preemergence, Rate 250 g/ha) was 0. The “Sugarbeets plant response rating” value (sugar beet; [6]) was 2, the “Plant response rating, Sugarbeets” value (sugar beet; [7]) was 0 and the “Velvetleaf plant response rating” value (velvetleaf; [1]) was 0. For the same compound, the “Velvetleaf plant response rating” value (velvetleaf; [2]) was 0, the “Plant response rating, Velvetleaf” value (velvetleaf; [3]) was 0 and the “Velvetleaf plant response rating” value (velvetleaf; [4]) was 0. The “Velvetleaf plant response rating” value (velvetleaf; [5]) was 0, the “Velvetleaf plant response rating (0 to 10 scale)” value (velvetleaf; Preemergence, Rate 250 g/ha) was 0 and the “Velvetleaf plant response rating” value (velvetleaf; [6]) was 0. For the same compound, the “Plant response rating, Velvetleaf” value (velvetleaf; [7]) was 0, the “Wild oats plant response rating” value (wild oat; [1]) was 0 and the “Wild oats plant response rating” value (wild oat; [2]) was 0. For the same compound, the “Plant response rating, Wild oats” value (wild oat; [3]) was 2, the “Wild oats plant response rating” value (wild oat; [4]) was 0 and the “Wild oats plant response rating” value (wild oat; [5]) was 0. For the same compound, the “Wild oats plant response rating (0 to 10 scale)” value (wild oat; Preemergence, Rate 250 g/ha) was 5, the “Wild oats plant response rating” value (wild oat; [6]) was 5 and the “Plant response rating, Wild oats” value (wild oat; [7]) was 0. For the same compound, the “Cocklebur plant response rating” value (cocklebur; [1]) was 0, the “Cocklebur plant response rating” value (cocklebur; [2]) was 0 and the “Plant response rating, Cocklebur” value (cocklebur; [3]) was 5. For the same compound, the “Cocklebur plant response rating” value (cocklebur; [5]) was 0, the “Plant response rating, Cocklebur” value (cocklebur; [7]) was 5 and the “Morningglory plant response rating” value (morningglory; [1]) was 0. The “Morningglory plant response rating” value (morningglory; [2]) was 1, the “Plant response rating, Morningglory” value (morningglory; [3]) was 3 and the “Morningglory plant response rating” value (morningglory; [4]) was 0. The “Morningglory plant response rating” value (morningglory; [5]) was 0, the “Morningglory plant response rating (0 to 10 scale)” value (morningglory; Preemergence, Rate 250 g/ha) was 0 and the “Morningglory plant response rating” value (morningglory; [6]) was 0. The “Plant response rating, Morningglory” value (morningglory; [7]) was 1, the “B. signalgrass plant response rating” value (surinam grass; [1]) was 0 and the “B. signalgrass plant response rating” value (surinam grass; [2]) was 0. For the same compound, the “Plant response rating, B. signalgrass” value (surinam grass; [3]) was 2, the “B. signalgrass plant response rating” value (surinam grass; [4]) was 0 and the “B. signalgrass plant response rating” value (surinam grass; [5]) was 0. The “B. signalgrass plant response rating (0 to 10 scale, 0 is no effect, 10 is complete control)” value (surinam grass; Preemergence, Rate 250 g/ha) was 0, the “B. signalgrass plant response rating” value (surinam grass; [6]) was 5 and the “Plant response rating, B. signalgrass” value (surinam grass; [7]) was 0. The “Nutsedge plant response rating” value (purple nutsedge; [1]) was 0, the “Nutsedge plant response rating” value (purple nutsedge; [2]) was 0 and the “Plant response rating, Nutsedge” value (purple nutsedge; [3]) was 0. For the same compound, the “Nutsedge plant response rating” value (purple nutsedge; [5]) was 0, the “Nutsedge plant response rating (0 to 10 scale)” value (purple nutsedge; Preemergence, Rate 250 g/ha) was 0 and the “Nutsedge plant response rating” value (purple nutsedge; [6]) was 0. The “Plant response rating, Nutsedge” value (purple nutsedge; [7]) was 0, the “Giant foxtail plant response rating” value (giant foxtail; [1]) was 0 and the “Giant foxtail plant response rating” value (giant foxtail; [2]) was 0. The “Plant response rating, Giant foxtail” value (giant foxtail; [3]) was 2, the “Giant foxtail plant response rating” value (giant foxtail; [4]) was 7 and the “Giant foxtail plant response rating” value (giant foxtail; [5]) was 10. The “Giant foxtail plant response rating (0 to 10 scale)” value (giant foxtail; Preemergence, Rate 250 g/ha) was 10, the “Giant foxtail plant response rating” value (giant foxtail; [6]) was 10 and the “Plant response rating, Giant foxtail” value (giant foxtail; [7]) was 0. For the same compound, the “Wheat plant response rating” value (wheat; [1]) was 0, the “Wheat plant response rating” value (wheat; [2]) was 0 and the “Plant response rating, Wheat” value (wheat; [3]) was 0. The “Wheat plant response rating” value (wheat; [4]) was 0, the “Wheat plant response rating” value (wheat; [5]) was 0 and the “Wheat plant response rating (0 to 10 scale)” value (wheat; Preemergence, Rate 250 g/ha) was 3. The “Wheat plant response rating” value (wheat; [6]) was 3, the “Plant response rating, Wheat” value (wheat; [7]) was 0 and the “Redroot pigweed plant response rating” value (pigweed; [1]) was 0. The “Redroot pigweed plant response rating” value (pigweed; [2]) was 0, the “Plant response rating, Redroot pigweed” value (pigweed; [3]) was 3 and the “Redroot pigweed plant response rating” value (pigweed; [4]) was 0. For the same compound, the “Redroot pigweed plant response rating” value (pigweed; [5]) was 0, the “Redroot pigweed plant response rating (0 to 10 scale)” value (pigweed; Preemergence, Rate 250 g/ha) was 0 and the “Redroot pigweed plant response rating” value (pigweed; [6]) was 0. For the same compound, the “Plant response rating, Redroot pigweed” value (pigweed; [7]) was 0, the “Crabgrass plant response rating” value (crabgrass; [1]) was 0 and the “Crabgrass plant response rating” value (crabgrass; [2]) was 0. For the same compound, the “Plant response rating, Crabgrass” value (crabgrass; [3]) was 3, the “Crabgrass plant response rating” value (crabgrass; [4]) was 5 and the “Crabgrass plant response rating” value (crabgrass; [5]) was 5. The “Crabgrass plant response rating (0 to 10 scale)” value (crabgrass; Preemergence, Rate 250 g/ha) was 10, the “Crabgrass plant response rating” value (crabgrass; [6]) was 10 and the “Plant response rating, Crabgrass” value (crabgrass; [7]) was 0.
